Test results taken from BindingDB's records for doi:10.1021/bi1017182 (University of California Riverside, 2011).

Target: T1, Carbon monoxide dehydrogenase small chain (Afipia carboxidovorans (strain ATCC 49405 / DSM 1227 / KCTC 32145 / OM5), UniProt P19921)
T1 sequence (P19921 whole entry): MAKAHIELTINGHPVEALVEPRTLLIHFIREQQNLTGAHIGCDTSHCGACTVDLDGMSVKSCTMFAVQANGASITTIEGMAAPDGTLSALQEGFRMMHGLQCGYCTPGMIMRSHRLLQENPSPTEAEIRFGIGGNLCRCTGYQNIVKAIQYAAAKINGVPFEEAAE
Assay: Inhibition Assay
From the text: Inhibition of CODH by Diphenyliodomium chloride. Inactivation of the FAD cofactor of CODH was accomplished by covalent modification of the flavin with diphenyliodonium chloride using a modification of the procedure of Chakraborty and Massey.

`O=C1C=CC(=O)C=C1` [1,4-Benzoquinone] was tested, and the Kd was 47.6 µM.

In the case of `O=C1C=CC(=O)c2ccccc21` [1,4-dihydronaphthalene-1,4-dione], the Kd is reported as 140 µM.
